Experiment: xn = mol fraction of the nth substance listed
Conditions: Liquid

CCO [ethanol] + O
mass density [kg/m3]
Conditions | 100 kPa | 10000 kPa | 20000 kPa | 30000 kPa | 40000 kPa
298.15 K, x1 = 0.003 | 995.3 | 999.8 | 1004.2 | 1008.5 | 1012.7
298.15 K, x1 = 0.0042 | 994.5 | 998.9 | 1003.2 | 1007.4 | 1011.5
298.15 K, x1 = 0.0082 | 993 | 997.3 | 1001.7 | 1005.9 | 1010
298.15 K, x1 = 0.0119 | 991.5 | 995.8 | 1000.1 | 1004.3 | 1008.3
298.15 K, x1 = 0.0158 | 989.8 | 994 | 998.2 | 1002.4 | 1006.4
298.15 K, x1 = 0.0184 | 988.4 | 992.6 | 996.8 | 1000.9 | 1005
298.15 K, x1 = 0.0219 | 987.6 | 991.7 | 995.9 | 1000.1 | 1004.1
298.15 K, x1 = 0.0255 | 986 | 990.2 | 994.4 | 998.4 | 1002.4
298.15 K, x1 = 0.0279 | 984.7 | 988.7 | 992.9 | 996.9 | 1000.8
298.15 K, x1 = 0.0315 | 984 | 988 | 992.1 | 996.1 | 1000
298.15 K, x1 = 0.0366 | 981.6 | 985.7 | 989.8 | 993.8 | 997.6
298.15 K, x1 = 0.0392 | 980.7 | 984.7 | 988.6 | 992.6 | 996.4
298.15 K, x1 = 0.0439 | 979.2 | 983.3 | 987.3 | 991.2 | 995.1
298.15 K, x1 = 0.0483 | 977.5 | 981.6 | 985.6 | 989.5 | 993.3
298.15 K, x1 = 0.0516 | 977.1 | 981 | 985.1 | 988.9 | 992.7
298.15 K, x1 = 0.0559 | 975.8 | 979.8 | 983.8 | 987.7 | 991.5
298.15 K, x1 = 0.06 | 974.5 | 978.5 | 982.4 | 986.3 | 990.1
298.15 K, x1 = 0.0652 | 972.9 | 976.9 | 980.8 | 984.7 | 988.4
298.15 K, x1 = 0.0679 | 972.2 | 976.1 | 980 | 983.9 | 987.6
298.15 K, x1 = 0.0722 | 971 | 974.9 | 978.7 | 982.6 | 986.3
298.15 K, x1 = 0.0801 | 968.6 | 972.4 | 976.2 | 980 | 983.7
298.15 K, x1 = 0.084 | 967.9 | 971.8 | 975.7 | 979.5 | 983.2
298.15 K, x1 = 0.0879 | 966.7 | 970.6 | 974.4 | 978.2 | 981.9
298.15 K, x1 = 0.0926 | 965.6 | 969.3 | 973.2 | 976.9 | 980.6
298.15 K, x1 = 0.0958 | 964.6 | 968.5 | 972.4 | 976.1 | 979.8
298.15 K, x1 = 0.1006 | 963.2 | 967.1 | 971 | 974.8 | 978.5
298.15 K, x1 = 0.1111 | 960.2 | 964.1 | 968 | 971.7 | 975.4
298.15 K, x1 = 0.1225 | 956.8 | 960.7 | 964.7 | 968.5 | 972.2
298.15 K, x1 = 0.1296 | 954.9 | 958.8 | 962.8 | 966.7 | 970.4
298.15 K, x1 = 0.1402 | 951.8 | 955.8 | 961.3 | 963.7 | 967.3
298.15 K, x1 = 0.151 | 948.4 | 952.5 | 956.6 | 960.5 | 964.3
298.15 K, x1 = 0.1601 | 945.6 | 949.8 | 953.9 | 957.9 | 961.7
298.15 K, x1 = 0.1703 | 942.5 | 946.7 | 950.9 | 955 | 958.9
298.15 K, x1 = 0.18 | 939.8 | 943.9 | 948.1 | 952.2 | 956.2
298.15 K, x1 = 0.1903 | 936.5 | 940.9 | 945.2 | 949.3 | 953.3
298.15 K, x1 = 0.1996 | 933.5 | 938 | 942.3 | 946.5 | 950.5
298.15 K, x1 = 0.2269 | 925.4 | 930 | 934.5 | 938.7 | 942.9
298.15 K, x1 = 0.2502 | 918.5 | 923.3 | 928 | 932.4 | 936.7
298.15 K, x1 = 0.2745 | 911.7 | 916.6 | 921.3 | 925.9 | 930.3
298.15 K, x1 = 0.3009 | 904.5 | 909.6 | 914.5 | 919.2 | 923.7
298.15 K, x1 = 0.35 | 891.9 | 897.1 | 902.3 | 907.2 | 911.9
298.15 K, x1 = 0.4034 | 879.4 | 884.9 | 890.4 | 895.5 | 900.4
298.15 K, x1 = 0.4501 | 868.8 | 874.7 | 880.4 | 885.7 | 890.8
298.15 K, x1 = 0.498 | 859.3 | 865.4 | 871.3 | 876.8 | 882
298.15 K, x1 = 0.5501 | 849.5 | 855.8 | 861.9 | 867.6 | 873
298.15 K, x1 = 0.5998 | 840.9 | 847.4 | 853.7 | 859.5 | 865.1
298.15 K, x1 = 0.6489 | 832.7 | 839.5 | 846 | 852 | 857.7
298.15 K, x1 = 0.6967 | 825.2 | 832.3 | 839 | 845.1 | 851
298.15 K, x1 = 0.7475 | 818.2 | 825.4 | 832.3 | 838.5 | 844.5
298.15 K, x1 = 0.7996 | 810.9 | 818.3 | 825.4 | 831.9 | 838.1
298.15 K, x1 = 0.8484 | 804.4 | 812.1 | 819.3 | 825.9 | 832.3
298.15 K, x1 = 0.8993 | 798 | 805.8 | 813.3 | 820 | 826.5
298.15 K, x1 = 0.9503 | 791.7 | 799.9 | 807.5 | 814.5 | 821
298.15 K, x1 = 1 | 785.7 | 794 | 801.9 | 808.9 | 815.7
323.15 K, x1 = 0.003 | 986.5 | 990.8 | 994.9 | – | –
323.15 K, x1 = 0.0042 | 985.4 | 989.6 | 993.9 | – | –
323.15 K, x1 = 0.0082 | 984 | 988.2 | 992.4 | – | –
323.15 K, x1 = 0.0119 | 982.7 | 986.9 | 991.1 | – | –
323.15 K, x1 = 0.0158 | 980.5 | 984.7 | 988.9 | – | –
323.15 K, x1 = 0.0184 | 979.2 | 983.3 | 987.5 | – | –
323.15 K, x1 = 0.0219 | 978 | 982.2 | 986.3 | – | –
323.15 K, x1 = 0.0255 | 976.5 | 980.6 | 984.7 | – | –
323.15 K, x1 = 0.0279 | 974.8 | 979 | 983.1 | – | –
323.15 K, x1 = 0.0315 | 973.9 | 978.1 | 982.2 | – | –
323.15 K, x1 = 0.0366 | 971.4 | 975.6 | 979.6 | – | –
323.15 K, x1 = 0.0392 | 970.2 | 974.3 | 978.4 | – | –
323.15 K, x1 = 0.0439 | 968.6 | 972.8 | 976.8 | – | –
323.15 K, x1 = 0.0483 | 966.6 | 970.7 | 974.8 | – | –
323.15 K, x1 = 0.0516 | 965.9 | 970 | 974 | – | –
323.15 K, x1 = 0.0559 | 964.5 | 968.6 | 972.7 | – | –
323.15 K, x1 = 0.06 | 962.9 | 967.1 | 971.2 | – | –
323.15 K, x1 = 0.0652 | 960.9 | 965 | 969.1 | – | –
323.15 K, x1 = 0.0679 | 960.2 | 964.3 | 968.3 | – | –
323.15 K, x1 = 0.0722 | 958.3 | 962.5 | 966.6 | – | –
323.15 K, x1 = 0.0801 | 955.1 | 959.3 | 963.4 | – | –
323.15 K, x1 = 0.084 | 954.7 | 958.9 | 963 | – | –
323.15 K, x1 = 0.0879 | 952.9 | 957.1 | 961.2 | – | –
323.15 K, x1 = 0.0926 | 951.4 | 955.5 | 959.6 | – | –
323.15 K, x1 = 0.0958 | 950.1 | 954.4 | 958.5 | – | –
323.15 K, x1 = 0.1006 | 948.5 | 952.8 | 956.9 | – | –
323.15 K, x1 = 0.1111 | 944.7 | 949 | 953.2 | – | –
323.15 K, x1 = 0.1225 | 940.6 | 945.1 | – | – | –
323.15 K, x1 = 0.1296 | 938.2 | 942.6 | – | – | –
323.15 K, x1 = 0.1402 | 934.5 | 939 | – | – | –
323.15 K, x1 = 0.151 | 930.7 | 935.2 | – | – | –
323.15 K, x1 = 0.1601 | 927.5 | 932.2 | – | – | –
323.15 K, x1 = 0.1703 | 924 | 928.8 | – | – | –
323.15 K, x1 = 0.18 | 920.6 | 925.5 | – | – | –
323.15 K, x1 = 0.1903 | 917.3 | 922.1 | – | – | –
323.15 K, x1 = 0.1996 | 914.1 | 919 | – | – | –
323.15 K, x1 = 0.2269 | 905.2 | 910.3 | – | – | –
323.15 K, x1 = 0.2502 | 898.1 | 903.4 | – | – | –
323.15 K, x1 = 0.2745 | 890.8 | 896.3 | – | – | –
323.15 K, x1 = 0.3009 | 883.5 | 889.2 | – | – | –
323.15 K, x1 = 0.35 | 870.2 | 876.2 | – | – | –
323.15 K, x1 = 0.4034 | 857.3 | 863.7 | – | – | –
323.15 K, x1 = 0.4501 | 846.7 | 853.3 | – | – | –
323.15 K, x1 = 0.498 | 837 | 843.9 | – | – | –
323.15 K, x1 = 0.5501 | 826.9 | 834.3 | – | – | –
323.15 K, x1 = 0.5998 | 818.4 | 826.3 | – | – | –
323.15 K, x1 = 0.6489 | 810.1 | 817.9 | – | – | –
323.15 K, x1 = 0.6967 | 802.8 | 810.9 | – | – | –
323.15 K, x1 = 0.7475 | 795.4 | 803.8 | – | – | –
323.15 K, x1 = 0.7996 | 788.4 | 796.9 | – | – | –
323.15 K, x1 = 0.8484 | 781.9 | 790.8 | – | – | –
323.15 K, x1 = 0.8993 | 775.6 | 784.7 | – | – | –
323.15 K, x1 = 0.9503 | 769.5 | 779 | – | – | –
323.15 K, x1 = 1 | 763.7 | 773.4 | – | – | –
